pIC50: −log10 of the molar value. Where two headings read alike, the source gives them in different places. Marks after values point to notes of the source that are not given here.
Columns and labels:
[1] = tested on: taux cérébraux de sérotonine; experiment: Brain serotonin levels after administration (Curzon and Green method); assay type: in vivo
Description: En particulier, les composés utilisés comme principes actifs des compositions pharmaceutiques de la présente invention, in vivo, ne provoquent pas de déplétion de sérotonine au niveau central. Le tableau II ci-dessous résume les taux cérébraux de sérotonine, en pourcentage par rapport aux contrôles, après administration orale ou intrapéritonéale de quatre ingrédients actifs des compositions pharmaceutiques de la présente invention. La détermination des taux cérébraux, selon Curzon et Green (Brit. J. Pharmacol. 39, 653, 1970), a été effectuée une heure et/ou deux heures après l'administration. La fenfluramine a été utilisée comme produit de référence.

[2] = Acute toxicity (DL50) in the rat; conditions: in vivo
Description: (§1) Dans le tableau I sont reportés, pour cinq composés représentatifs utiles comme ingrédients actifs dans les compositions selon l'invention: • - la toxicité aiguë, exprimée comme DL50 chez le rat par voie orale ou par voie intrapéritonéale (donnée A); • - l'activité anorexigène, exprimée comme dose orale ou intrapéritonéale inhibant de 50% la prise de nourriture (DE50, donnée B); • - le rapport entre la toxicité aiguë et l'activité anorexigène qui exprime l'index thérapeutique lié à la toxicité aiguë (donnée A/B).

[3] = tested on: prise de nourriture chez le rat; experiment: Anorectic activity, food intake method in the rat; assay type: in vivo; conditions: for A/B (index thérapeutique lié à la toxicité aiguë): DL50/DE50; for ED50: 1 h, rat, 30 minutes before food, food consumed in first hour, read-out: B DE50 (dose inhibant de 50% la prise de nourriture)
Procedure: L'activité anorexigène a été évaluée par la méthode de la prise de nourriture chez le rat. On a utilisé des rats femelles de 200 g entrainés pendant 10 jours à manger durant une période de 4 heures et sélectionnés au huitième jour. Au bout du dixième jour, les animaux randomisés ont été divisés en un "groupe contrôle", traité par le seul véhicule, et en plusieurs "groupes traités". Le traitement a été effectué par voie orale et/ou intrapéritonéale 30 minutes avant la présentation de la nourriture et, ensuite, on a mesuré la quantité de nourriture consommée au cours de la première heure.
as §1

[4] = target: récepteurs post-synaptiques de la sérotonine; experiment: 3H-serotonin binding to rat cortex membranes (Peroutka and Snyder method); conditions: fixed concentration of 3H-serotonin
Description: L'affinité des composés de la présente invention pour les récepteurs post-synaptiques de la' sérotonine a été déterminée selon la méthode de Peroutka et Snyder (Molec. Pharmacol. 1979, 16, 687-699) qui consiste à incuber des membranes de cortex de rat avec une concentration fixée de ^3H-sérotonine en présence de différentes concentrations de produit. Le tableau III montre la concentration molare de trois ingrédients actifs représentatifs de la présente invention qui donne une inhibition de 50% du binding spécifique au récepteur sérotoninergique (IC50), à savoir la mesure de la capacité du produit d'intéragir avec la ^3H-sérotonine dans le binding à son récepteur. La fenfluramine et la 3-(3-trifluorométhylphényl)-1-propyl-1,2,5,6-tétrahydropyridine (Composé A), décrite par le brevet allemand 2 904 826, ont été utilisées comme composés de référence.

| SMILES | taux cérébraux de sérotonine % par rapport aux contrôles ([1]; i.p., 15 mg/kg, 1 h.) | taux cérébraux de sérotonine % par rapport aux contrôles ([1]; i.p., 15 mg/kg, 2 h.) | taux cérébraux de sérotonine % par rapport aux contrôles ([1]; i.p., 7,5 mg/kg, 2 h.) | LD50 ([2]; ip) | LD50 ([2]; po, os) | A/B (index thérapeutique lié à la toxicité aiguë) ([3]; i.p.) | ED50 ([3]; ip, i.p.) | A/B (index thérapeutique lié à la toxicité aiguë) ([3]; os) | ED50 ([3]; po, os) | taux cérébraux de sérotonine % par rapport aux contrôles ([1]; i.p., 30 mg/kg, 2 h.) | taux cérébraux de sérotonine % par rapport aux contrôles ([1]; os, 15 mg/kg, 2 h.) | taux cérébraux de sérotonine % par rapport aux contrôles ([1]; os, 7,5 mg/kg, 2 h.) | taux cérébraux de sérotonine (result in words) ([1]; at anorectic doses) | taux cérébraux de sérotonine % par rapport aux contrôles ([1]; i.p., 5,0 mg/kg, 1 h.) | taux cérébraux de sérotonine % par rapport aux contrôles ([1]; i.p., 7,5 mg/kg, 1 h.) | pIC50 [4] |
| --- | --- | --- | --- | --- | --- | --- | --- | --- | --- | --- | --- | --- | --- | --- | --- | --- |
| FC(F)(F)c1cccc(C2=CCNCC2)c1 [CM 57235, chlorhydratede 4-(3-triflüorométhylphényl)-1,2,3,6-tétrahydropyridine] | 106% | 102% | 112,0% | 94.6 mg/kg | 346 mg/kg | 11,2 | 8.4 mg/kg | 22 | 15.7 mg/kg | – | – | – | – | – | – | – |
| FC(F)(F)c1cccc(C2=CCN(Cc3ccccc3)CC2)c1 [CM 57451, chlorhydratede 4-(3-trifluorométhylphényl)-1-benzyl-1,2,3,6-tétrahydropyridine] | 121,2% | 112,0% | – | 220 mg/kg | 600 mg/kg | 14,6 | 15 mg/kg | 33,3 | 18 mg/kg | 119,0% | – | – | – | – | – | – |
| CCCN1CC=C(c2cccc(C(F)(F)F)c2)CC1 [CM 57545, chlorhydratede 4-(3-trifluorométhylphényl)-1-propyl-1,2,3,6-tétrahydropyridine] | – | 112% | 103% | 124 mg/kg | 178 mg/kg | 17,7 | 7 mg/kg | 22,2 | 8 mg/kg | – | – | – | – | – | – | – |
| CN1CC=C(c2cccc(C(F)(F)F)c2)CC1 [CM 57548, chlorhydratede 4-(3-trifluorométhylphényl)-1-méthyl-1,2,3,6-tétrahydropyridine] | – | – | – | 186 mg/kg | – | 15,2 | 12.2 mg/kg | – | – | – | – | – | – | – | – | – |
| CCCCCN1CC=C(c2cccc(C(F)(F)F)c2)CC1 [CM 57756, chlorhydratede 4-(3-trifluorométhylphényl)-1-n-pentyl-1,2,3,6-tétrahydropyridine] | – | – | – | – | 311 mg/kg | – | – | 35,4 | 8.8 mg/kg | – | 125 * % | 138 ** % | – | – | – | – |
| CCNC(C)Cc1cccc(C(F)(F)F)c1 (stereo not drawn) [fenfluramine, reference compound] | – | – | 53,1 ** % | 85.6 mg/kg | 100 mg/kg | 15,8 | 5.4 mg/kg | 25,1 | 4 mg/kg | – | – | – | réduction importante de sérotonine cérébrale | 82,9 * % | 81,6 * % | < 5.00 |

From EP0060179A1, “Pharmaceutical compositions having anorectic activity” (SANOFI S.A., priority 1981, dated 1982)
